The values below come from article PMC4669759 (Cell Death & Disease, 2015).

SMILES strings stand for the structures. Where “and” joins values, the source holds several entries; their conditions need not be identical. Equal values may be shown once.

One assay deals with T1, MCL-1–BIM complexes (Homo sapiens, UniProt Q07820).
T1 construct: endogenous in cells; host or cells: H929
Put plainly: Co-immunoprecipitation–electrochemiluminescent ELISA of MCL-1–BIM complexes in H929 cells. To be noted: 4 h. It counts as cell-based. The method, then: (a) H929 cells were treated with increasing concentrations of A-1210477 for 4 h. […] All data represent the mean of triplicate experiments, with error bars indicating the S.D. (b) Quantitative measurement of protein–protein interactions using a luciferase-based mammalian two-hybrid assay. […] All data represent the means of triplicate experiments, with error bars indicating the S.Ds.
After compound treatments, cells were lysed in buffer containing 1% CHAPS, 10 mM HEPES, and 150 mM NaCl with protease inhibitor cocktail (Roche, Indianapolis, IN, USA). In all, 100 μg of cell lysate was added to each well of a Meso Scale Discovery (Rockville, MD, USA) 96-well plate precoated with biotinylated anti-MCL-1 antibody (clone RC13) from Thermo Fisher Scientific. MCL-1-BIM complexes were detected with rabbit anti-BIM antibody (clone Y36) from Abcam, followed by Sulfo-tagged anti-rabbit antibody (Meso Scale Discovery; cat no. R32AB-5) and Meso Scale Discovery reading buffer with surfactant (cat. no. R92TC-2) according to the manufacturer's recommendations. Each step was followed by washing three times with PBS-T (PBS+0.1% Tween-20).
For orientation: An ELISA detects its analyte on a solid surface through an enzyme-linked reagent.

The target in a further assay is BCL-2 (Homo sapiens, UniProt P10415). Put plainly: TR-FRET binding affinity assay, BCL-2. How it is done: (§1) TR-FRET-binding affinity assays were performed for BCL-2, BCL-XL, and MCL-1 in 4.52 mM monobasic potassium phosphate, 15.48 mM dibasic potassium phosphate, 1 mM sodium EDTA, 0.05% Pluronic F-68 detergent, 50 mM sodium chloride, and 1 mM DTT (pH 7.5) as described previously for BCL-XL.[6] For MCL-1 assays, GST-tagged MCL-1 (1 nM) was mixed with 100 nM f-Bak, 1 nM Tb-labeled anti-GST antibody, and compound at room temperature (RT) for 60 min. Fluorescence was measured on an Envision plate reader (Perkin-Elmer, Waltham, MA, USA) using a 340/35 nm excitation filter and 520/525 (f-Bak) and 495/510 nm (Tb-labeled anti-GST antibody) emission filters.
BCL-2, sequence (P10415 whole entry): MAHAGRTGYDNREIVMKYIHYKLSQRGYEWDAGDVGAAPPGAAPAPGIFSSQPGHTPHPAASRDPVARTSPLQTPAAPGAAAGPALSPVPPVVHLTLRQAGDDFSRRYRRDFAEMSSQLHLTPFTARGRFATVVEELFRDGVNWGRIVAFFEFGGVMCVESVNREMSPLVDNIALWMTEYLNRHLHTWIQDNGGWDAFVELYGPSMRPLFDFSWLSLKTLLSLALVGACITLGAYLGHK
In general terms: TR-FRET usually uses a lanthanide donor and a delayed reading to cut background.

Assay [1] has as its system MCL-1(3B)–BIMS(2A)ΔC complexes. Nature of the assay: Live cell redistribution assay, eGFP-MCL-1(3B) and mCherry-BIMS(2A)ΔC, T-REx-293 cells. It counts as cell-based. The source says:
To further rule out potential artifacts associated with lysate detergents that can influence interactions between BCL-2 family proteins,[47] we employed a recently described real-time imaging method to assess the effects on BCL-2 family complexes in live cells.[48] Briefly, interacting pairs of BCL-2 family proteins are expressed as fluorescent fusion proteins at stoichiometric levels from a bicistronic expression module integrated into a single site of the genome in T-REx-293 cells. Under basal conditions, both proteins localize primarily to the mitochondria, where the anti-apoptotic proteins (enhanced green fluorescent protein (eGFP)-BCL-2, eGFP-BCL-XL, or eGFP-MCL-1(3B)) sequester their pro-apoptotic counterparts (mCherry-BAD or mCherry-BIMS(2A)ΔC, the latter being a specific binder of MCL-1[48], [49]). Disruption of these complexes can be tracked by measuring the amount of mCherry-labeled BH3-only protein localized specifically to the mitochondria. […]
Figure 3 A-1210477 inhibits MCL-1-BIM complexes in live cells. […] The decrease in amount of mCherry-BH3 protein localized to the mitochondria was quantified as a function of time as described in the Materials and Methods, normalized to DMSO control, and fitted to a single exponential decay. Each data point represents the mean change in intensity calculated from 10 fields of view, with error bars indicating the S.E.M. (b) T-REx-293 cells stably expressing eGFP-MCL-1(3B) and mCherry-BIMS(2A)ΔC were treated with 50 μM ABT-737 or increasing concentrations (1–25 μM) A-1210477 for 100 min. The decrease in amount of mCherry-BIMS(2A)ΔC localized to the mitochondria was quantified as in panel (a). (c) Representative fluorescence microscopic images of T-REx-293 cells stably expressing eGFP-BCL-2 family and interacting mCherry-BH3-only proteins before and after 300 min of treatment with 10 μM A-1210477 or (d) ABT-737. […]
Experiments were carried out as detailed previously.[48] […] Therefore, the entire cell was identified with a single intensity threshold applied to the eGFP fluorescence, excluding areas identified as mitochondria. […]

For a further assay, the system named is Bak-/- Bax-/- MEFs. Nature of the assay: Cell viability, Bak-/- Bax-/- murine embryonic fibroblasts. It is filed as cell-based. To be noted: 48 h. The method, then:
Supplementary Figure 4. […] Murine embryonic fibroblasts (MEFs) lacking Bak and Bax were treated with increasing concentrations of A-1155905, A-1208746, A-1210477, staurosporine or bortezomib for 48 h before assessing cell viability. Data represent the mean of triplicate experiments and error bars indicate the standard error of the mean.

A further assay deals with MCL-1 (Homo sapiens, UniProt Q07820). Nature of the assay: TR-FRET binding affinity assay, MCL-1. The method, then: as §1
MCL-1, sequence (Q07820 whole entry): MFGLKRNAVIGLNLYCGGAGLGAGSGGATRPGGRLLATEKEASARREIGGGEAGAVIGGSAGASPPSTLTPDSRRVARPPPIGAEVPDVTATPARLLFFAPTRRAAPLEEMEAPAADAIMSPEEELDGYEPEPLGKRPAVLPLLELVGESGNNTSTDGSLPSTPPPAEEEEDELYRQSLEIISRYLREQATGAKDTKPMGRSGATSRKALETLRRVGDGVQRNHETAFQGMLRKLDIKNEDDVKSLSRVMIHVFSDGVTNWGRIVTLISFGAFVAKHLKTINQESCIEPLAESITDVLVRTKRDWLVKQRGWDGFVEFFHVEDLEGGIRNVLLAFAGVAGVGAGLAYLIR

T1 sequence (Q07820 whole entry, one chain of several): as the sequence (Q07820 whole entry) above

In the case of `Cc1nn(C)c(COc2ccc(N3CCN(S(=O)(=O)N(C)C)CC3)cc2)c1-c1cccc2c(CCCOc3cccc4ccccc34)c(C(=O)O)n(CCN3CCOCC3)c12` [A-1210477], the “IC50, reduction of BIM co-immunoprecipitated with MCL-1” value against MCL-1–BIM complexes is recorded as “low-μM range”. Besides, the Ki at BCL-2 was 132000 pM; at MCL-1, 400 to 500 pM and 454 pM. For the same compound, the “redistribution of mCherry-BIMS(2A)ΔC from mitochondria” value in assay [1] (T-REx-293 cells expressing MCL-1(3B)) is “induced dose-dependent redistribution of BIMS(2A)ΔC to the cytosol”. In addition, the “lowest concentration at which BIMS(2A)ΔC redistribution could be observed” value in assay [1] (T-REx-293 cells, 100 min) was found to be 1 µM. The “killing of Bak-/- Bax-/- MEFs” value with Bak-/- Bax-/- MEFs is recorded as “do not Kill”.

Usually Ki stands for the equilibrium dissociation constant of an inhibitor or competing ligand from its target. A high value points to a looser hold on the target.
